Assay results published in the supplement of paper PMC10307832.

Key:
Assay in all cases: relative viability (nuclei count vs DMSO), 5 days (fraction); higher = more cells survive
[1] = compound: C1/C(=C\C2=CC=CS2)/C(=O)/C(=C/C3=CC=CS3)/C1 + CC1(C)CCC(c2ccc(Cl)cc2)=C(CN2CCN(c3ccc(C(=O)NS(=O)(=O)c4ccc(N[C@H](CCN5CCOCC5)CSc5ccccc5)c(S(=O)(=O)C(F)(F)F)c4)cc3)CC2)C1 [Navitoclax] (partner 0.5 µM)
Method in brief: (§1)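 Lung cancer cell lines were seeded in 1536-well plates and dosed by pin tool the next day, with either a single drug or a fixed anchor-drug dose combined with five library-drug doses (not always all listed) spaced in √10 steps. Five days later, one step fixed the cells and stained their nuclei (final 0.05% Triton X-100, 1% formaldehyde, 1 ug/ml Hoechst), and nuclei were counted on 4× images. Relative viability is the nuclei count in treated wells divided by the count in vehicle wells, and each value is the median of duplicate plates.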

TPCA-1 + Navitoclax = compound: C1=CC(=CC=C1C2=CC(=C(S2)NC(=O)N)C(=O)N)F [TPCA-1] + CC1(C)CCC(c2ccc(Cl)cc2)=C(CN2CCN(c3ccc(C(=O)NS(=O)(=O)c4ccc(N[C@H](CCN5CCOCC5)CSc5ccccc5)c(S(=O)(=O)C(F)(F)F)c4)cc3)CC2)C1 [Navitoclax] (partner 0.5 µM)
Method in brief: as §1

[2] = compound: C[C@]12O[C@H](C[C@]1(O)CO)n1c3ccccc3c3c4c(c5c6ccccc6n2c5c31)CNC4=O [Lestaurtinib] + Nc1nc2[nH]cc(CCc3ccc(C(=O)N[C@@H](CCC(=O)O)C(=O)O)cc3)c2c(=O)[nH]1 [Pemetrexed] (partner 0.2 µM)
Method in brief: as §1

TPCA-1 + Palbociclib = compound: C1=CC(=CC=C1C2=CC(=C(S2)NC(=O)N)C(=O)N)F [TPCA-1] + CC(=O)c1c(C)c2cnc(Nc3ccc(N4CCNCC4)cn3)nc2n(C2CCCC2)c1=O [Palbociclib] (partner 0.5 µM)
Method in brief: as §1

| Cell Line | relative viability ([1]; first compound 0.2 µM) | relative viability ([1]; first compound 0.6325 µM) | relative viability ([1]; first compound 2 µM) | relative viability ([1]; first compound 6.325 µM) | relative viability ([1]; first compound 20 µM) | relative viability (TPCA-1 + Navitoclax; first compound 0.04 µM) | relative viability (TPCA-1 + Navitoclax; first compound 0.1265 µM) | relative viability (TPCA-1 + Navitoclax; first compound 0.4 µM) | relative viability (TPCA-1 + Navitoclax; first compound 1.265 µM) | relative viability (TPCA-1 + Navitoclax; first compound 4 µM) | relative viability ([2]; first compound 0.005 µM) | relative viability ([2]; first compound 0.01581 µM) | relative viability ([2]; first compound 0.05 µM) | relative viability ([2]; first compound 0.1581 µM) | relative viability ([2]; first compound 0.5 µM) | relative viability (TPCA-1 + Palbociclib; first compound 0.04 µM) | relative viability (TPCA-1 + Palbociclib; first compound 0.1265 µM) | relative viability (TPCA-1 + Palbociclib; first compound 0.4 µM) | relative viability (TPCA-1 + Palbociclib; first compound 1.265 µM) | relative viability (TPCA-1 + Palbociclib; first compound 4 µM) |
| --- | --- | --- | --- | --- | --- | --- | --- | --- | --- | --- | --- | --- | --- | --- | --- | --- | --- | --- | --- | --- |
| SK-LU-1 | 0.698 | 0.767 | 0.813 | 0.969 | 0.799 | 0.962 | 0.785 | 0.789 | 0.7 | 0.566 | 1 | 0.802 | 0.476 | 0.457 | 0.284 | 0.363 | 0.367 | 0.368 | 0.347 | 0.235 |
| LOU-NH91 | 0.726 | 0.744 | 0.724 | 0.581 | 0.723 | 0.822 | 0.585 | 0.692 | 0.65 | 0.507 | 0.413 | 0.509 | 0.448 | 0.583 | 0.338 | 0.539 | 0.51 | 0.471 | 0.524 | 0.532 |
| LXF-289 | 0.939 | 0.996 | 0.929 | 0.862 | 0.908 | 0.937 | 0.907 | 0.949 | 0.915 | 0.839 | 0.872 | 0.931 | 0.631 | 0.771 | 0.21 | 0.623 | 0.605 | 0.627 | 0.643 | 0.514 |
| NCI-H1299 | 1.08 | 1.08 | 1.03 | 0.973 | 1.05 | 1.08 | 1.02 | 1.02 | 1.04 | 1.07 | – | – | – | – | – | – | – | – | – | – |
| HARA | 1.1 | 1.15 | 1.13 | 0.497 | 1.11 | 1.13 | 1.08 | 1.16 | 1.08 | 1.08 | 0.265 | 0.246 | 0.203 | 0.171 | 0.196 | 0.249 | 0.298 | 0.282 | 0.27 | 0.176 |
| LU99A | 0.734 | 0.796 | 0.814 | 0.788 | 0.793 | 0.976 | 0.77 | 0.802 | 0.766 | 0.473 | 0.152 | 0.153 | 0.217 | 0.14 | 0.128 | 0.468 | 0.365 | 0.407 | 0.369 | 0.258 |
| 201T | 1.24 | 1.17 | 1.27 | 1.13 | 1.2 | 1.2 | 1.17 | 1.19 | 1.2 | 1.25 | 0.34 | 0.342 | 0.317 | 0.279 | 0.251 | 0.376 | 0.362 | 0.385 | 0.386 | 0.363 |
| HCC-827 | 1.1 | 0.966 | 1.01 | 0.959 | 1.02 | 0.996 | 1.04 | 1.04 | 1 | 0.683 | 0.234 | 0.234 | 0.26 | 0.28 | 0.196 | 0.487 | 0.407 | 0.521 | 0.413 | 0.278 |
| NCI-H1666 | 1.22 | 0.818 | 1.05 | 0.622 | 0.983 | 1.12 | 0.848 | 1.03 | 0.943 | 1.05 | 0.988 | 0.92 | 0.948 | 0.95 | 0.707 | 0.653 | 0.661 | 0.605 | 0.673 | 0.64 |
| NCI-H1915 | 0.788 | 0.758 | 0.818 | 0.754 | 0.818 | 0.788 | 0.733 | 0.783 | 0.771 | 0.694 | 0.589 | 0.432 | 0.458 | 0.447 | 0.205 | 0.568 | 0.475 | 0.515 | 0.516 | 0.465 |
| NCI-H2009 | 1.19 | 1.21 | 1.06 | 1.15 | 1.16 | 1.2 | 1.18 | 1.08 | 1.19 | 1.12 | 1.07 | 1.06 | 0.998 | 0.934 | 0.835 | 0.254 | 0.204 | 0.25 | 0.174 | 0.19 |
| ChaGo-K-1 | 1.01 | 0.964 | 1.11 | 0.698 | 0.727 | 0.959 | 0.927 | 1.13 | 0.98 | 0.406 | 0.267 | 0.268 | 0.261 | 0.249 | 0.205 | 0.976 | 0.663 | 0.795 | 0.891 | 0.733 |
| COR-L 105 | 0.623 | 0.772 | 0.79 | 0.737 | 0.701 | 0.964 | 0.642 | 0.962 | 0.636 | 0.64 | 1.06 | 1.19 | 1.14 | 0.743 | 0.631 | 0.419 | 0.457 | 0.419 | 0.379 | 0.359 |
